How the values were obtained:
Test in all cases: Minimum inhibitory concentration of antibiotic with or without imidazole compound
Assay type in all cases: cell-based
[1] = test system: Coagulase-negative staphylococci CN58
Description: (§1) Exemplary embodiments of a 2-(substituted-amino)-imidazole compound in combination with an antibiotic compound were tested to evaluate the effect on minimum inhibitory concentration (MIC).
(§2) In these experiments, a frozen stock of the bacterial strain was streaked onto a sterile brain heart infusion agar plate and incubated at 37° C. for 16-20 hours. After the incubation period, three to five well-isolated bacterial colonies of the same morphologic type were taken from the brain heart infusion agar plate culture and used to inoculate, using a sterile loop, a tube containing 4 mL to 5 mL of cation adjusted Mueller Hinton (MHII) broth. The culture was allowed to grow in a shaking incubator at 220 rpm at 37° C. until the culture reached logarithmic phase, as determined by the measuring of and achieving an optical density (OD) of 0.3 to 0.5 measured at 600 nm. The bacterial concentration of the culture was then adjusted with the addition of MHII broth to achieve the equivalent of 1×10^6 colony-forming unit (CFU)/mL using the approximation that 1×10^9 CFU/mL is equal to OD600 nm=1. Cells were then treated with the designated amount of test compound (shown in Table 1) or a solvent control (dimethyl sulfoxide) for 30 minutes at ambient conditions. Cells were then transferred into 96-well round bottom plates and exposed to 2-fold serial dilutions of the denoted antibiotic.

[2] = test system: Coagulase-negative staphylococci CN74
Description: as §1, §2

[3] = test system: Coagulase-negative staphylococci CN8
Description: as §1, §2

[4] = test system: Staphylococcus aureus B12; conditions: S. aureus B12
Description: as §1, §2

Staphylococcus aureus B8 = conditions: S. aureus B8
Description: as §1, §2

[5] = test system: Staphylococcus aureus Xen30; conditions: S. aureus Xen30
Description: as §1, §2

CC(C)Nc1ncc(-c2cccc(NC(=O)Nc3ccc(Cl)c(Cl)c3)c2)[nH]1 [Compound 1, 1-(3,4-dichlorophenyl)-3-(3-(2-(Isopropylamino)-1H-Imidazol-5-yl)phenyl)urea]
Minimum Inhibitory Concentration of penicillin ([1]; +Compound 1 at 2 μM): 0.125 µg/mL | Minimum Inhibitory Concentration of penicillin ([2]; +Compound 1 at 2 μM): 0.5 µg/mL | Minimum Inhibitory Concentration of penicillin ([3]; +Compound 1 at 2 μM): 0.125 µg/mL | Minimum Inhibitory Concentration of penicillin ([4]; +Compound 1 at 2 μM): 1 µg/mL | Minimum Inhibitory Concentration of penicillin (Staphylococcus aureus B8; +Compound 1 at 2 μM): 2 µg/mL | Minimum Inhibitory Concentration of penicillin ([5]; +Compound 1 at 4 μM): 8 µg/mL

Cc1onc(-c2ccccc2)c1C(=O)N[C@@H]1C(=O)N2[C@@H]1SC(C)(C)[C@@H]2C(=O)O [Oxacillin]
MIC ([5]; Staphylococcus aureus, No imidazole compound, read-out: Minimum Inhibitory Concentration of Oxacillin): 128 µg/mL

penicillin
Minimum Inhibitory Concentration of penicillin ([1]; No imidazole compound): 32 µg/mL | Minimum Inhibitory Concentration of penicillin ([2]; No imidazole compound): 8 µg/mL | Minimum Inhibitory Concentration of penicillin ([3]; No imidazole compound): 2 µg/mL | Minimum Inhibitory Concentration of penicillin ([4]; No imidazole compound): 16 µg/mL | Minimum Inhibitory Concentration of penicillin (Staphylococcus aureus B8; No imidazole compound): 64 µg/mL | Minimum Inhibitory Concentration of penicillin ([5]; No imidazole compound): 128 µg/mL

Source: patent publication US20220125763A1, “COMPOSITIONS PROVIDING ENHANCED ANTIBACTERIAL ACTIVITY AGAINST GRAM-POSITIVE BACTERIA AND USE THEREOF” (ANIFERA LIMITED, priority 2019, published 2022)
